Source: ChEMBL document CHEMBL3259609, “Optimization of pancreatic lipase inhibition by Cudrania tricuspidata fruits using response surface methodology” (Bioorg Med Chem Lett, 2014)

Assays:
[1] = target: T1, Pancreatic triacylglycerol lipase (Sus scrofa) (UniProt P00591); details: 10 uM
T1 sequence (whole entry): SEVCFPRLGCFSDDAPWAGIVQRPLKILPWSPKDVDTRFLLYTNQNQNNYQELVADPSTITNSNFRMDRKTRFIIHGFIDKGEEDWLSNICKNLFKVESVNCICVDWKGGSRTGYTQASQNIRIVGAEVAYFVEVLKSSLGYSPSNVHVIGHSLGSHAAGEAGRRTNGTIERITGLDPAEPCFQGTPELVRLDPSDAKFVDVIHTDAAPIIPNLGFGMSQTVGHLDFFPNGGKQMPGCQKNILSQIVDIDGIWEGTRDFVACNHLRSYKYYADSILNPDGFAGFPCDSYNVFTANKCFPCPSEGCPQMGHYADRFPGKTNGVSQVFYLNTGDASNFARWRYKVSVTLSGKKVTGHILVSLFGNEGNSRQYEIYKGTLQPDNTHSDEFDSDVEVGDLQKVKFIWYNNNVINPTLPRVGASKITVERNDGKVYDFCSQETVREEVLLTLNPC
Description: Inhibition of porcine pancreatic lipase assessed as hydrolysis of p-NPB to p-nitrophenol at 10 uM by microplate reader relative to control

[2] = target: T2, Pancreatic triacylglycerol lipase (Sus scrofa, UniProt P00591); assay: Inhibition of porcine pancreatic lipase assessed as hydrolysis of p-NPB to p-nitrophenol by microplate reader
T2 sequence (P00591 whole entry): T1 sequence (whole entry)

Structure (SMILES): CC(C)=CCc1c(O)c(CC=C(C)C)c2occ(-c3ccc(O)cc3)c(=O)c2c1O
- inhibition [1]: 72.2%
- IC50 [2]: 65 µM
